Source: article PMC9622310 (Biomolecules & Therapeutics, 2022)
Several values for one entry are separate records, joined by “and”; a condition that tells them apart may be missing. Identical values can stand only once. Like-named read-outs stand apart in the source and are kept apart here. Each block holds one compound with its values, some of them ahead of it.

Key:
[1] = ref Bergan et al., 1981; cited from earlier work
[2] = tested on: P-gp; conditions: ref Hussar, 2014; cited from earlier work
[3] = format: in vivo, rat; conditions: for Ae0-24 h: unchanged in urine for 24 h; for clearance: CL; for CL renal: CLR; for Vd: Vss
[4] = Tissue distribution of tofacitinib 30 min after intravenous administration; format: in vivo, rat; conditions: 30 min after intravenous 10 mg/kg
[5] = oral 20 mg/kg, male Sprague-Dawley rats; ref Lee and Kim, 2019; cited from earlier work
[6] = Rat plasma protein binding of tofacitinib by equilibrium dialysis; format: in vitro ADME; conditions: pH 7.4
[7] = in vitro; conditions: rat, intestinal microsomes, pH 7.4, CLint
[8] = in vivo; conditions: rat, plasma, po, 20 mg/kg; for CL renal: CLR
[9] = oxidation and N-demethylation; ref Dowty et al., 2014; cited from earlier work
[10] = hepatic microsomes
[11] = tested on: 4% human serum albumin; conditions: 1 to 100 μg/mL; ref Kim et al., 2020; cited from earlier work
[12] = oral 20 mg/kg; for GI24 h: remaining in gastrointestinal tract at 24 h, 20 mg/kg; for Ae0-24 h: unchanged in urine for 24 h
[13] = intestinal microsomes
[14] = tested on: CYP2C11; assay: Immunoblot analysis of CYP2C11 in hepatic and intestinal microsomes of DSS rats; parameters: species or system rat
[15] = tested on: CYP3A1/2; assay: Immunoblot analysis of CYP3A1/2 in hepatic and intestinal microsomes of DSS rats; parameters: species or system rat
[16] = tested on: rats; assay: Induction of ulcerative colitis by 5% DSS in drinking water; format: in vivo, rat
[17] = rat, plasma, iv, 10 mg/kg, intravenous 10 mg/kg, CON rats
[18] = rat, plasma, iv, 10 mg/kg, intravenous 10 mg/kg, DSS rats

Compound: Cc1ncc([N+](=O)[O-])n1CCO [metronidazole]
- Increase of plasma concentration in patients with ulcerative colitis [1]: 50%

- Decrease of CL in DSS rats compared with CON rats ([3]; intravenous 10 mg/kg): 47.7%
- Decrease of CLNR in DSS rats compared with CON rats ([3]; intravenous 10 mg/kg): 45.3%
- Decrease of CLR in DSS rats compared with CON rats ([3]; intravenous 10 mg/kg): 77.6%
- Decrease of Vss in DSS rats compared with CON rats ([3]; intravenous 10 mg/kg): 43.2%
- Increase of AUC in DSS rats compared with CON rats ([3]; intravenous 10 mg/kg): 92.3%
- CLNR ([3]; intravenous 10 mg/kg, CON rats): 34.0 ± 5.54 mL/min/kg
- Ae0-24 h ([3]; intravenous 10 mg/kg, CON rats): 3.97 ± 2.93 % of dose
- CLNR ([3]; intravenous 10 mg/kg, DSS rats): 18.6 ± 1.65 mL/min/kg
- Ae0-24 h ([3]; intravenous 10 mg/kg, DSS rats): 2.73 ± 1.89 % of dose
- CLR′ (CLR recalculated from free fraction in plasma) ([3]; intravenous, CON rats): 5.07 mL/min/kg
- Contribution of CLR to CL ([3]; intravenous, CON rats): 8.27%
- CLR′ (CLR recalculated from free fraction in plasma) ([3]; intravenous, DSS rats): 1.10 mL/min/kg
- Contribution of CLR to CL ([3]; intravenous, DSS rats): 3.55%
- half-life ([3]; rat, plasma, iv, 10 mg/kg): 31 ± 5.36 min
- AUC ([3]; rat, plasma, iv, 10 mg/kg, intravenous 10 mg/kg, CON rats (n=7)): 4520 ng·h/mL
- AUC ([3]; rat, plasma, iv, 10 mg/kg, intravenous 10 mg/kg, DSS rats (n=6)): 8680 ng·h/mL
- clearance [3, 17]: 37.1 ± 5.68 mL/min/kg
- clearance [3, 18]: 19.4 ± 2.26 mL/min/kg
- CL renal [3, 17]: 3.07 ± 1.4 mL/min/kg
- CL renal [3, 18]: 0.688 ± 0.149 mL/min/kg
- MRT [3, 17]: 20.3 min
- MRT [3, 18]: 31.9 min
- Vd [3, 17]: 0.767 ± 0.286 L/kg
- Vd [3, 18]: 0.436 ± 0.164 L/kg
- Concentrations in stomach, small intestine and mesentery, DSS versus CON rats [4]: significantly higher
- Plasma concentration, DSS versus CON group [4]: significantly higher
- Distribution in rat tissues ([4]; both groups): widely distributed
- fraction unbound at 24 h, 10 μg/mL ([6]; fresh plasma from CON and DSS rats): 0.606 to 0.626
- fraction unbound at 24 h, 10 μg/mL ([6]; fresh plasma from CON rats): 0.606
- fraction unbound at 24 h, 10 μg/mL ([6]; fresh plasma from DSS rats): 0.626
- microsomal CLint ([7]; CON rats): 5.81 µL/min/mg
- microsomal CLint ([7]; DSS rats): 3.54 µL/min/mg
- AUC ([8]; CON rats (n=6)): 2650 ng·h/mL
- AUC ([8]; DSS rats (n=6)): 4920 ng·h/mL
- CL renal ([8]; CON rats): 5.47 ± 4.05 mL/min/kg
- CL renal ([8]; DSS rats): 1.97 ± 1.14 mL/min/kg
- Cmax ([8]; CON rats): 2360 ± 587 ng/mL
- Cmax ([8]; DSS rats): 2460 ± 1050 ng/mL
- Tmax ([8]; CON rats): 19.2 min
- Tmax ([8]; DSS rats): 25 min
- Decrease of CLint in DSS rats compared with CON rats [10]: 75.5%
- Km, DSS versus CON rats [10]: comparable
- Decrease of CLR in DSS rats compared with CON rats [12]: 64.0%
- Increase of AUC in DSS rats compared with CON rats [12]: 85.5%
- Ae0-24 h ([12]; CON rats): 4.13 ± 2.71 % of dose
- Ae0-24 h ([12]; DSS rats): 2.40 ± 1.26 % of dose
- Km, DSS versus CON rats [13]: comparable
- Decrease of CLint in DSS rats compared with CON rats ([13]; p=0.0679): 39.1%
Compound: C[C@@H]1CCN(C(=O)CC#N)C[C@@H]1N(C)c1ncnc2[nH]ccc12 [tofacitinib, Tofacitinib]
- P-gp substrate status [2]: substrate of P-gp
- GI24 h ([3]; intravenous, both CON and DSS rats): less than 0.484 % of the intravenous dose
- F [5]: 29.1%
- Fraction metabolized by hepatic CYP3A4 and CYP2C19 [9]: approximately 70%
- Concentration dependence of binding to 4% human serum albumin [11]: independent of tofacitinib concentrations
- GI24 h ([12]; CON rats): 0.124 % of dose and 0.124 ± 0.141 % of dose
- GI24 h ([12]; DSS rats): 1.10 % of dose and 1.10 ± 0.782 % of dose

- Decrease in protein expression of CYP2C11 ([14]; intestine of DSS rats): 78.5%
- Decrease in protein expression of CYP2C11 ([14]; liver of DSS rats): 43.3%
- Decrease in protein expression of CYP3A1/2 ([15]; intestine of DSS rats): 99.3%
- Decrease in protein expression of CYP3A1/2 ([15]; liver of DSS rats): 80.1%
Compound: dextran sulfate sodium [DSS]
- Decrease in colon length compared to CON rats ([16]; 5% DSS (w/v) in drinking water for 10 days): 49.0%
- Body weight decrease ([16]; 5% DSS (w/v) in drinking water for 10 days, DSS rats): 1.14%
- CLCR ([16]; DSS rats): 2.68 mL/min/kg
- Decrease of plasma albumin ([16]; DSS rats versus CON rats): 15.8%
- Increase of urea nitrogen ([16]; DSS rats versus CON rats): 86.4%
